Test results: patent publication US20190201377A1, “METHODS AND COMPOSITIONS FOR TREATMENT OF LIPID STORAGE DISORDERS” (Neurotrope BioScience, Inc., priority 2014, published 2019)

Experiments:
M12 NPC1 CHO cells [1] = assay: Cholesterol storage by filipin staining in NPC1 CHO (M12) cells; assay type: cell-based, Chinese hamster; settings: for filipin fluorescence, % of levels in untreated cells: oleic/linoleic acids for 48 hours, M12 CHO cells
Method: The human wild-type fibroblast (GM05387), NPC1o fibroblast (GM09341), and NPC1 fibroblast (GM03123) cell lines were obtained from Coriell Cell Repositories (Camden, N.J.). The M12 Chinese hamster ovary (CHO) cell line and its wild-type parental line were obtained and cultured. Fibroblast cell lines were cultured in DMEM, and CHO cells were cultured in DMEM/F12 (50:50) medium, supplemented with 10% FBS, 2 mM L-glutamine, and 50 μg/ml gentamicin in a humidified incubator at 37° C. with 5% CO2. For filipin staining in transfected cells, cells were transfected with PKC or Rab9 using Fugene 6 according to the manufacturer's recommendations. After 48 hrs, cells were stained with filipin as we have previously described [3 7]. Cells were mounted onto slides using Fluoromount-G (Southern Biotech, Birmingham, Ala.) and analyzed on a Nikon Eclipse microscope fitted with a charge-coupled-device camera (Nikon, Melville, N.Y.). Images were acquired with MetaVue software and then deconvoluted using AutoDeblur software from AutoQuant Imaging, Inc (Troy, N.Y.). For quantitation of filipin fluorescence, cells were seeded at 3×10^5 cells/well in 6-well dishes and allowed to settle overnight, after which the medium was replaced with medium containing 10% lipoprotein deficient serum (LPDS) for 4 days. Cells were incubated with oleic/linoleic acids for 48 hours, […] for 24 hrs, or diazoxide for 72 hrs before fixing and staining with filipin as we have previously described. Images were acquired using the same exposure time for all samples. Fluorescence intensity was determined using the integrated intensity function of MetaVue software; at least 150 cells were quantitated for each sample and each experiment was repeated 3 times. For analysis of sphingolipid transport, cells were incubated with oleic/linoleic acids, DCP-LA, or PMA for 48 hours before BODIPY-LacCer staining was performed as previously described.

human NPC1 3123 cells [2] = assay: Sphingolipid transport by BODIPY-LacCer staining; assay type: cell-based; settings: 48 hours
Description: For filipin staining in transfected cells, cells were transfected with PKC or Rab9 using Fugene 6 according to the manufacturer's recommendations. After 48 hrs, cells were stained with filipin as we have previously described [3 7]. Cells were mounted onto slides using Fluoromount-G (Southern Biotech, Birmingham, Ala.) and analyzed on a Nikon Eclipse microscope fitted with a charge-coupled-device camera (Nikon, Melville, N.Y.). Images were acquired with MetaVue software and then deconvoluted using AutoDeblur software from AutoQuant Imaging, Inc (Troy, N.Y.). For quantitation of filipin fluorescence, cells were seeded at 3×10^5 cells/well in 6-well dishes and allowed to settle overnight, after which the medium was replaced with medium containing 10% lipoprotein deficient serum (LPDS) for 4 days. Cells were incubated with oleic/linoleic acids for 48 hours, DCPLA/DHA for 24 hrs, or diazoxide for 72 hrs before fixing and staining with filipin as we have previously described. Images were acquired using the same exposure time for all samples. Fluorescence intensity was determined using the integrated intensity function of MetaVue software; at least 150 cells were quantitated for each sample and each experiment was repeated 3 times. For analysis of sphingolipid transport, cells were incubated with oleic/linoleic acids, DCP-LA, or PMA for 48 hours before BODIPY-LacCer staining was performed as previously described.
To further confirm the positive effects of DCP-LA and fatty acids on the NPC1 phenotype, human NPC1 cells were treated with DCP-LA, fatty acids, or PMA to activate PKCs. […] Following absorption to the plasma membrane, the LacCer sphingolipid enters normal cells via endocytosis and eventually reaches the trans-Golgi network (TGN; [30]). […] Human NPC1 cells treated as indicated in FIG. 7 show a dramatic improvement in lipid transport with the BODIPY-LacCer effectively reaching the TGN (FIG. 7; arrows) compared to untreated cells that show only punctate, endosomal fluorescence (FIG. 7A).

human NPC24-SV cells [3] = assay: Cholesterol accumulation by filipin staining in NPC24-SV cells; assay type: cell-based; settings: for effect in cholesterol assay: NPC24-SV cells, FIG. 13
Method: (§1) Cells are plated in 6-well dishes and treated with the appropriate compound (dissolved in DMSO) at the indicated dose daily for 48 hrs. Control cells receive DMSO. After 48 hrs cells are transferred to cover slips with fresh compound and grown for another 24 hrs. Cover slips are collected and processed for microscopy.
(§2) For detection of unesterified cholesterol in lysosomes, cells were fixed in formalin for 30 min at 4° C., washed 2×, 5 min in 0.9% NaCl, incubated for 45 min with 0.01% filipin in PBS at room temperature, and then washed 2×, 5 min. Fluorescence was observed using a Nikon Eclipse fluorescence microscope (Nikon, Melville, N.Y.) equipped with a CCD camera. Fluorescence signals were quantified using Nikon's imaging and quantitation software package NIS Elements, v.3.22.

NPC3-SV cells [4] = assay type: cell-based, Human
NPC3-SV cells [5] = assay: Stored cholesterol by filipin staining in NPC3-SV cells; assay type: cell-based, Human; settings: for clearance of cholesterol from NPC1 cells: 48 h, FIG. 8, different drug concentrations; for stored cholesterol levels: 72 h, FIG. 9
Method: as §1, §2

NPC3SV cells = assay type: cell-based, Human
NPC cells = settings: PMA treatment of NPC cells, earlier study [5]; cited from earlier work
C57 NPC1 mice = assay: Treatment of C57 NPC1 mice, life span; assay type: in vivo, mouse
Method: A total of […] C57B16 NPC1 mice, mixed sex, were used. These mice were separated into […], Groups 1-5.
Bryostatin 1 (purity ≥:95%) from Aphios (Woburn, Mass.), 1 vial 2 mg, was solubilized in a 5% DMSO, 20% Solutol and 75% Saline solution and used as the study drug. The negative (vehicle) control is a 5% DMSO, 20% Solutol and 75% Saline solution. DCP-LA from Sigma-Aldrich: 5 mg oil/vial was used as an additional in vitro active compound. Bryostatin 1 (API) was stored at or below −20° C. and formulated as needed. The formulated bryostatin 1 was stored at 2° to 8° C. for less than 24 hour(s). The DCP-LA and the vehicle controls were stored at 2°-8° C.
The stock solution of bryostatin 1 is 1 Omg/ml in DMSO, which is kept at −80° C. in aliquots. The dosing formulation is made by diluting the stock first in DMSO, then adding solutol, and lastly saline-with more insoluble compounds, adding the drug stock to complete vehicle will cause the compound to come out of solution, so we make formulations stepwise. The dosing volume is always 100 μl. Mice weigh approximately 20 g.
The mice are dosed twice weekly (Mon and Thu) starting at 30 days for up to 150 days.
C57 NPC1 mice have an average life span of ˜110 days. By Day 70 mice reach an average weight of 18-22 grams. Untreated NPC1 mice develop ataxia and will begin to lose weight at ˜70 days (see FIG. 17). Ataxia (or lack of voluntary muscle control) is a clinical feature of NPC1 mice, which may be described as shaking. Treatment will be initiated at ˜30 days of age, average NPC mouse weight of 10 g. If the drug is efficacious injections will continue past day 70-80. An extension of life of about 20-30% will mean that animals will need to be treated up to day 130-150.

human NPC24-SV cells [6] = assay: Glycosphingolipid accumulation by VTB staining in NPC24-SV cells; assay type: cell-based
M12 NPC1 CHO cells [7] = assay: Cholesterol esterification assay in M12 NPC1 CHO cells; assay type: cell-based, Chinese hamster; settings: for esterification levels over untreated cells: 50 μg/ml fatty acid for 2 days followed by expression of PKC ε
Method: The preparation of [3H] oleate substrate and esterification assays were performed as previously described. Cells were treated with 50 μg/ml fatty acid for 2 days and then transfected with […] or PKCε for 24 hrs before esterification assays. All values were generated in triplicate and normalized for total cell protein.

human NPC1 3123 cells [8] = assay: Cholesterol storage by filipin staining in human NPC1 3123 fibroblasts; assay type: cell-based; settings: oleic/linoleic acids for 48 hours
Method: The human wild-type fibroblast (GM05387), NPC1o fibroblast (GM09341), and NPC1 fibroblast (GM03123) cell lines were obtained from Coriell Cell Repositories (Camden, N.J.). The M12 Chinese hamster ovary (CHO) cell line and its wild-type parental line were obtained and cultured. Fibroblast cell lines were cultured in DMEM, and CHO cells were cultured in DMEM/F12 (50:50) medium, supplemented with 10% FBS, 2 mM L-glutamine, and 50 μg/ml gentamicin in a humidified incubator at 37° C. with 5% CO2. For filipin staining in transfected cells, cells were transfected with PKC or Rab9 using Fugene 6 according to the manufacturer's recommendations. After 48 hrs, cells were stained with filipin as we have previously described [3 7]. Cells were mounted onto slides using Fluoromount-G (Southern Biotech, Birmingham, Ala.) and analyzed on a Nikon Eclipse microscope fitted with a charge-coupled-device camera (Nikon, Melville, N.Y.). […] For quantitation of filipin fluorescence, cells were seeded at 3×10^5 cells/well in 6-well dishes and allowed to settle overnight, after which the medium was replaced with medium containing 10% lipoprotein deficient serum (LPDS) for 4 days. […] Fluorescence intensity was determined using the integrated intensity function of MetaVue software; at least 150 cells were quantitated for each sample and each experiment was repeated 3 times. […]

## CCCCCC1CC1CC1CC1CCCCCCCC(=O)O (stereo not shown) [DCP-LA, 8-[2-(2-pentylcyclopropylmethyl)-cyclopropyl]-octanoic acid]
M12 NPC1 CHO cells [1]; 100 μM DCP-LA, 24 hrs (overnight)
  reduction of cholesterol storage (filipin intensity): ~50%
Human NPC1 3123 cells [2]; 20 μM DCP-LA
  BODIPY-LacCer transport to the trans-Golgi network: the lipid can be seen in the TGN
Human NPC24-SV cells [3]; DCPLA, concentration not given, NPC24-SV cell line, FIG. 11
  filipin accumulation: decrease filipin accumulation
NPC3-SV cells [4]
  stored glycosphingolipid levels (VTB): decrease stored glycosphingolipid levels
NPC3-SV cells [5]
  clearance of cholesterol from NPC1 cells: able to induce clearance of cholesterol
  stored cholesterol levels: decrease stored cholesterol levels
NPC3SV cells; DCPLA, concentration not given, NPC3SV cells, FIG. 12
  ganglioside transport block (CTB): release the ganglioside transport block

## CC/C=C\C/C=C\C/C=C\C/C=C\C/C=C\C/C=C\CCC(=O)O [DHA, docosahexanoic acid]
M12 NPC1 CHO cells [1]; 10 μM DHA, 24 hrs (overnight)
  reduction of cholesterol storage (filipin intensity): ~50%

## CCCCCCCCCCCCCC(=O)O[C@@H]1[C@@H](C)[C@@]2(O)[C@@H](C=C(CO)C[C@]3(O)C(=O)C(C)=C[C@@H]23)[C@@H]2C(C)(C)[C@]12OC(C)=O [PMA, phorbol-12-myristate-13-acetate]
Human NPC1 3123 cells [2]; 100 nM PMA
  BODIPY-LacCer transport to the trans-Golgi network: the lipid can be seen in the TGN
NPC cells
  NPC lipid storage phenotype: ameliorated the NPC lipid storage phenotype

## CCC/C=C/C=C/C(=O)O[C@H]1/C(=C/C(=O)OC)C[C@H]2C[C@H]([C@@H](C)O)OC(=O)C[C@H](O)C[C@@H]3C[C@H](OC(C)=O)C(C)(C)[C@](O)(C[C@@H]4C/C(=C/C(=O)OC)C[C@H](/C=C/C(C)(C)[C@]1(O)O2)O4)O3 [bryostatin 1]
C57 NPC1 mice; 10 μg/kg IP twice weekly starting at 30 days
  age that mice lived past: > 100 days
C57 NPC1 mice; 20 μg/kg IP twice weekly starting at 30 days
  age that mice lived past: > 100 days
C57 NPC1 mice; 30 μg/kg IP twice weekly starting at 30 days
  age that mice lived past: > 100 days
Human NPC24-SV cells [3]; 0.1 nM
  effect in cholesterol assay: no effect
Human NPC24-SV cells [3]; 1 nM, increases with increasing concentration
  effect in cholesterol assay: statistically significant
Human NPC24-SV cells [3]; 10 nM bryostatin 1, NPC24-SV cell line, FIG. 11
  cholesterol clearance: able to effect cholesterol 2 clearance
Human NPC24-SV cells [3]; summary of the cholesterol and glycosphingolipid assays of Example 2
  concentration showing a positive therapeutic effect for human NPC1 disease cells: 10 to 100 nM
NPC3-SV cells [4]
  glycosphingolipid accumulation (VTB): statistically significant effectiveness in decreasing the glycosphingolipid accumulation
NPC3-SV cells [5]
  clearance of cholesterol from NPC1 cells: able to induce clearance of cholesterol
  stored cholesterol levels: most active compound showing activity in the nanomolar concentration range
Human NPC24-SV cells [6]; 0.1 nM, FIG. 14
  effect in sphingolipid assay: no effect
Human NPC24-SV cells [6]; 1 nM, FIG. 14, increases with increasing concentration
  effect in sphingolipid assay: statistically significant
NPC3SV cells
  clearance of endosome-trapped cholera toxin (CTB): able to clear the endosome-trapped cholera toxin (CTB)

## CC1=NS(=O)(=O)c2cc(Cl)ccc2N1 [diazoxide]
M12 NPC1 CHO cells [1]; 100 μM diazoxide, 72 hrs
  reduction of cholesterol storage (filipin intensity): ~50%
NPC3-SV cells [5]
  clearance of cholesterol from NPC1 cells: able to induce clearance of cholesterol

## CCCCC/C=C\C/C=C\CCCCCCCC(=O)O [linoleic acid]
M12 NPC1 CHO cells [1]
  filipin fluorescence, % of levels in untreated cells: ~75%
Human NPC1 3123 cells [2]; 2 μg/ml linoleic acid
  BODIPY-LacCer transport to the trans-Golgi network: the lipid can be seen in the TGN
M12 NPC1 CHO cells [7]; 50 μg/ml fatty acid for 2 days
  increase of cholesterol esterification compared to untreated M12 cells: greater than 2 fold
M12 NPC1 CHO cells [7]
  esterification levels over untreated cells: ~3.5 fold
Human NPC1 3123 cells [8]
  filipin fluorescence, % of levels in untreated cells: ~75%

## CCCCCCCC/C=C\CCCCCCCC(=O)O [oleic acid, cis-9-octadecenoic acid]
M12 NPC1 CHO cells [1]
  filipin fluorescence, % of levels in untreated cells: ~75%
Human NPC1 3123 cells [2]; 2 μg/ml oleic acid
  BODIPY-LacCer transport to the trans-Golgi network: the lipid can be seen in the TGN
M12 NPC1 CHO cells [7]
  esterification levels over untreated cells: ~3.5 fold
Human NPC1 3123 cells [8]
  filipin fluorescence, % of levels in untreated cells: ~75%
